Source: publication PMC12544700, “Identification of a Small Secretoneurin Derivative That Inhibits CaMKIIδ Activity” (Journal of Cellular and Molecular Medicine, 2025)
Peptide text beside a SMILES is read from it. * marks the point of attachment. Biotin = O=C1N[C@H]2[C@H](CS[C@H]2CCCCC(=O)*)N1; Ahx = NCCCCCC(=O)O

Legend:
recombinant CaM = target: T1, recombinant CaM (Homo sapiens, UniProt P0DP23); assay: Calmodulin pull-down with peptides synthesised on cellulose membrane; format: binding; details: peptide on cellulose membrane; 1 μg recombinant CaM, 1 mM CaCl2, overnight 4°C; immunoblot; Figure 3B
T1 construct: purchased Sigma Merck C4874
Description: To test for calmodulin (CaM) binding, recombinant CaM was pulled down after incubation with SN‐db‐short or a peptide representing the CaM binding site in CaMKII ([…], positive control). SN‐db‐short and the CaM‐binding peptide were synthesised in triplicates onto a cellulose membrane by a Multipep automated peptide synthesiser (CEM Corporation, Matthews, NC, USA). The specific spots of the membrane corresponding to SN‐db‐short or the positive control peptide were cut and placed into separate tubes. The membrane pieces were first rehydrated in 100% methanol and subsequently incubated with 1 μg of recombinant CaM (C4874, Sigma Merck) in CaMKII binding buffer supplemented with CaCl2 (50 mM Hepes, 150 mM NaCl, 15 mM MgCl2, 1 mM CaCl2, 0.1% Triton X‐100, 1% BSA) overnight at 4°C with rotation. […]
Lysates and immunoprecipitates were separated on 12% or 4%–15% Criterion TGX precast gels (5671044 and 5671084, Biorad, Hercules, CA, USA), blotted onto PVDF membranes (1704157 by Biorad or 03010040001 by Sigma Merck) and reversibly stained with Revert 700 Total Protein Stain (Li‐COR Biosciences, Lincoln, NE, USA). […] Blots were developed using ECL (RPN2236, GE Healthcare, Chicago, IL, USA) after four washing steps of 10 min in TBS‐t and the chemiluminescence signals were detected by Azure Biosystems 600 (Dublin, CA, USA). […] ImageJ [13] was used to quantify the blots.

adult rat cardiomyocytes = assay: Caffeine-elicited Ca2+ transients (Ca2+ extrusion); format: cell-based; details: 10 mM caffeine; whole‐cell photometry; Figure S3, n = 10–18, 4–6 rats
Description: Male Wistar rats (Janvier, France) weighing ~300 g were sedated in an anaesthesia chamber by inhalation of 5% isoflurane and 95% O2. The heart was excised under deep surgical anaesthesia, cannulated, and then retrogradely perfused through the aorta on a modified Langendorff setup with cell isolation solution containing (in mM, pH adjusted to 7.4, 37°C): NaCl 130, Hepes 25, D‐glucose 22, KCl 5.4, MgCl2 0.5, NaH2PO4 0.4, and a flow rate of 4 mL/min. After the heart was cleaned of blood, collagenase type II (2 mg/mL, Worthington Biochemical Corp, Lakewood, NJ, USA) was added to the perfusate, and the hearts digested for ~10 min. Following digestion, hearts were cut down, and the left ventricle dissected into pieces, which were transferred into 10 mL cell isolation solution with 250 μL BSA (40 mg/mL) and ~0.2 mg Deoxyribonuclease I (Worthington Biochemical Corporation, Lakewood, NJ, USA). […]
To estimate SR Ca^2+ content, Ca^2+ release was triggered by rapid exposure to 10 mM caffeine (Sigma) and recorded by whole‐cell photometry (Photon Technology International, Monmouth Junction, NJ, USA) with a 40× oil objective. Cells were first stimulated at 1 Hz in Hepes‐Tyrode (HT, see the paragraph above) solution containing CaCl2 until at least three stable Ca^2+ transients were recorded. […]

## CC(C)C[C@H](NC(=O)[C@H](CCC(=O)O)NC(=O)[C@H](CCC(N)=O)NC(=O)[C@H](Cc1ccccc1)NC(=O)[C@H](Cc1ccccc1)NC(=O)[C@H](CO)NC(=O)[C@H](CCC(=O)O)NC(=O)[C@H](Cc1ccccc1)NC(=O)[C@@H](NC(=O)[C@H](C)NC(=O)[C@H](CC(C)C)NC(=O)[C@H](CO)NC(=O)[C@H](CCC(N)=O)NC(=O)[C@@H]1CCCN1C(=O)[C@@H](NC(=O)[C@H](Cc1ccc(O)cc1)NC(=O)[C@H](CCC(N)=O)NC(=O)[C@H](CCC(=O)O)NC(=O)CCCCCNC(=O)CCCC[C@@H]1SC[C@@H]2NC(=O)N[C@@H]21)[C@@H](C)O)[C@@H](C)O)C(=O)NCC(=O)N[C@@H](CCCCN)C(=O)O [SN‐db‐short] ({Biotin-Ahx}-EQYTPQSLATFESFFQELGK-OH; N-terminus and C-terminus assumed)
Recombinant CaM
  CaM binding (pull-down): no CaM was detected
Adult rat cardiomyocytes
  Rate of Ca2+ extrusion (Na+‐Ca2+ exchanger and plasma membrane Ca2+ ATPase activity): no change
